According to article PMC3726599, “A Metabolically-Stabilized Phosphonate Analog of Lysophosphatidic Acid Attenuates Collagen-Induced Arthritis” (PLoS ONE, 2013):

Legend:
plasma ATX activity = system: T1, plasma ATX activity; test: In vivo inhibition of plasma ATX activity (TOOS assay); set-up: species or system mouse; settings: 10 mg/kg i.p.
T1 construct: from tissue; host or cells: mouse plasma / whole blood
Protocol: ATX/LysoPLD activity was assessed based on the amount of choline released from LPC with the use of TOOS (N-ethyl-N-(2-hydoroxy-3-sulfopropyl)-3-methylaniline) reagent. In this assay ATX-mediated LPC-liberated choline is oxidised by choline oxidase to betaine and hydrogen peroxide (H2O2). The latter in the presence of horseradish peroxidase reacts with TOOS and 4-aminoantipyrene (4-AAP) to form a pink quinoneimine dye measured at 555 nm. […]
The liberated choline was detected by adding 100 μl of a color mix containing 4-AAP and TOOS (0.3 mM), horseradish peroxidase (5.3 UnitmL^−1) and choline oxidase (2 UnitmL^−1). Absorbance was measured at 555 nm and data were analyzed using the statistical software package Prism 4.0 (Graphpad Software Inc, La Jolla, CA, USA). For each sample and control the absorbance was plotted against time and the slope (da/min) for the linear (steady-state) portion of each reaction profile was calculated. Absorbance units were converted to nmol of choline/min/ml by comparison with a choline standard curve or by use of the extinction coefficient for the quinoneimine dye according to the following equation: [drawing 1] […]
BrP-LPA was administered intraperitoneally (IP) at 10 mg/kg in water to 6–8 week old female mice. […] Plasma samples were then analysed for plasma ATX activity and BrP-LPA/LPA/LPC levels with the TOOS activity assay and HPLC-MS/MS respectively. […]

recombinant ATX = target: T2, recombinant ATX (Homo sapiens, UniProt Q13822); test: FS-3 ATX activity assay; assay type: biochemical
T2 construct: purchased SinoBiological Inc (main data); R&D (additional Km values)
Protocol: Inhibition of ATX activity by BrP-LPA was determined using the cleavage of the ATX-specific fluorogenic substrate FS-3 (Echelon Biosciences, UT, USA). Assays were conducted in a final volume of 100 μl in the presence of 140 mM NaCl, 5 mM KCl, 1 mM MgCl2 and 50 mM Tris, pH 8.0 with the use of 1 µM FS-3, 2 nM ATX from Echelon and increasing concentrations of BrP-LPA. Reactions were brought up to 100 µl with ddH2O and were then incubated at 37°C in a Tecan Infinite 200 microplate reader (Tecan Trading AG, Switzerland) set to make fluorescence measurements every 1 min for a total period of 30 min. Autotaxin activity was quantified by measuring the rate of increase in fluorescence at 528 nm with excitation at 485 nm. At the end of the measurement, each data point was plotted on a graph of fluorescence versus time. A linear regression was fitted in the linear portion of the graph (3–20 min).
The biochemistry of lyso-PLD was assessed by following the kinetics data using a wide panel of different ATX substrates [FS-3, different LPC species (14:0, 16:0, 18:0, 18:1)], three different recombinant ATX proteins (R&D, Sino-Biological and Echelon) and three different ATX activity assays (FS-3, TOOS, Amplex Red). The ATX activity was measured at different substrate concentrations (typically from 1-1000 μM) in order to examine whether ATX follows Michaelis-Menten kinetics. […] Km and Vmax were evaluated from the rectangular hyperbola curve with the use of GraphPad software.
For in vitro inhibition measurements, BrP-LPA was dissolved in water as a stock solution (4 mM) and appropriate dilutions were made in water. […] The in vitro inhibition of ATX by BrP-LPA was evaluated with three different assays (FS-3, Amplex Red, and TOOS). […]
The inhibition model (competitive, noncompetitive, or mixed type inhibition) was evaluated by graphical analysis with Lineweaver–Burk double reciprocal plots (1/[velocity] versus 1/[substrate]) and Cornish-Bowden plot ([substrate]/[velocity] versus [Inhibitor]). […]

% Inhibition at 10 μΜ (recombinant ATX; FS-3 1 μΜ, BrP-LPA 10 μΜ): 95%
IC50 (recombinant ATX; FS-3 assay, [S] 1 μΜ FS-3, Echelon ATX 2 nM, mean±std): 400 ± 30 nM
Ki (recombinant ATX; FS-3 substrate, Cheng-Prusoff from IC50): 300 ± 100 nM
Structure (SMILES): CCCCCCCCCCCCCCCC(=O)OC[C@@H](O)CC(Br)P(=O)(O)O (stereo partly drawn) [BrP-LPA, 1-bromo-3(S)-hydroxy-4-(palmitoyloxy)butyl-phosphonate]
reduction of plasma ATX activity (plasma ATX activity; 1 hour post administration): 48%
ATX activity, % of initial activity (plasma ATX activity; sixteen hours post administration): 92%
